25 compounds from patent publication US7495104B2, “Quinoline or quinazoline derivatives inhibiting auto-phosphorylation of fibroblast growth factor receptors” (Kirin Beer Kabushiki Kaisha, priority 2001, dated 2009) can be followed below.

Some results are limits rather than exact numbers.

Sequence of Bek (P21802 431-767 limits assumed): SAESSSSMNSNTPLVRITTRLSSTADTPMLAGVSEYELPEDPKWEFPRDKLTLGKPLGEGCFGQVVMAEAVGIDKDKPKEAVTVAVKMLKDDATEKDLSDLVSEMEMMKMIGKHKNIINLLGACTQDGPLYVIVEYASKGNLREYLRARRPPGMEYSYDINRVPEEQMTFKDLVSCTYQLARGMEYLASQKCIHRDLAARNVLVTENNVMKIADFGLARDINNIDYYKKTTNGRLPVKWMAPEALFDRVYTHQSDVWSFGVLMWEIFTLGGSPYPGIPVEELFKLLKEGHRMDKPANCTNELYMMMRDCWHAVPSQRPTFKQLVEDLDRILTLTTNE

The target of this test is Bek (Homo sapiens, UniProt P21802). The experiment in a line: Inhibitory activity against Bek-autophosphorylation using ELISA method in OCUM-2MD3 cells. The conditions noted are these: 1 hr with compound, read-out: IC50 (concentration necessary for inhibiting 50% of Bek-phosphorylation). It counts as cell-based. The method, boiled down:
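OCUM-2MD3 human scirrhous gastric cancer cells in 0.1% FCS were exposed to compound for 1 hr at 37° C, then lysed. Phospho-tyrosine proteins were captured with anti-phosphotyrosine antibody, probed with anti-Bek antibody and peroxidase read-out (A450). Positive control (1000 nM) set 0%, untreated 100%; IC50 from multi-level dilutions.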
In the case of `COc1cc2c(Oc3ccc(Nc4ccc(C(C)(C)C)cc4)cc3)ccnc2cc1OCC(O)CN1CC(C)CC(C)C1` (stereo not shown) [Compound 254, 1-{4-[4-(4-Tert-butyl-phenylamino)-phenoxy]-6-methoxy-quinolin-7-yloxy}-3-(3,5-dimethyl-piperidin-1-yl)-propan-2-ol], the IC50 was 94.2 nM.
As for `COCC(C)NCCOc1cc2nccc(Oc3ccc(Nc4ccc(C(C)(C)C)cc4)cc3)c2cc1OC` (stereo not shown) [Compound 363, N1-[4-(Tert-butyl)phenyl]-4-[(6-methoxy-7-{2-[(2-methoxy-1-methylethyl)amino]ethoxy}-4-quinolyl)oxy]aniline], the IC50 turned out to be 364 nM.
In the case of `COc1cc2c(Oc3ccc(NC(=O)NCCC(C)(C)C)c(Cl)c3)ccnc2cc1OCCCCN` [Compound 175, 1-{4-[7-(4-Amino-butoxy)-6-methoxy-quinolin-4-yloxy]-2-chloro-phenyl}-3-(3,3-dimethyl-butyl)-urea] it was 21.7 nM.
As for `COc1cc2c(Oc3ccc(NC(=O)NCCC(C)(C)C)cc3)ccnc2cc1OCC(O)CN1CCC(c2ccccc2)CC1` (stereo not shown) [Compound 252, 1-(3,3-Dimethyl-butyl)-3-(4-{7-[2-hydroxy-3-(4-phenyl-piperidin-1-yl)-propoxy]-6-methoxy-quinolin-4-yloxy}-phenyl)-urea], the IC50 was found to be 42.6 nM.
For `COc1cc2nccc(Oc3ccc(Nc4ccc(C(C)(C)C)cc4)cc3)c2cc1OCCN(C)CCO` [Compound 357, 2-[(2-{4-[4-(4-Tert-butyl-phenylamino)-phenoxy]-7-methoxy-quinolin-6-yloxy}-ethyl)-methyl-amino]-ethanol], the IC50 was 213 nM.
For the compound `COc1cc2nccc(Oc3ccc(Nc4ccc(C5CCCCC5)cc4)cc3)c2cc1OC` [Compound 10, (4-Cyclohexylphenyl)-[4-(6,7-dimethoxyquinolin-4-yloxy)phenyl]-amine], the IC50 turned out to be 631 nM.
As for `COc1cc2c(Oc3ccc(NC(=O)NCCC(C)(C)C)cc3F)ccnc2cc1OCCCN1CCOCC1` [Compound 326, 1-(3,3-Dimethyl-butyl)-3-{3-fluoro-4-[6-methoxy-7-(3-morpholin-4-yl-propoxy)-quinolin-4-yloxy]-phenyl}-urea], the IC50 is under 10 nM.
In the case of `COc1cc2nccc(Oc3c(Cl)cc(NC(=O)NCCC(C)(C)C)cc3Cl)c2cc1OC` [Compound 140, 1-[3,5-Dichloro-4-(6,7-dimethoxy-quinolin-4-yloxy)-phenyl]-3-(3,3-dimethyl-butyl)-urea], the IC50 was 172 nM.
For `COc1cc2nccc(Oc3ccc(NC(=O)NCCC(C)(C)C)cc3)c2cc1OC` [Compound 101, 1-[4-(6,7-Dimethoxy-quinolin-4-yloxy)-phenyl]-3-(3,3-dimethyl-butyl)-urea], the IC50 was under 10 nM.
As for `CCN(CC)CCOc1cc2nccc(Oc3ccc(NC(=O)NCCC(C)(C)C)c(Cl)c3)c2cc1OC` [Compound 167, 1-{2-Chloro-4-[7-(2-diethylamino-ethoxy)-6-methoxy-quinolin-4-yloxy]-phenyl}-3-(3,3-dimethyl-butyl)-urea], the IC50 is 95 nM.
Turning to `COc1cc2nccc(Oc3ccc(Oc4ccc(C(C)(C)C)cc4)cc3)c2cc1OC` [Compound 30, 4-[4-(4-Tert-butylphenoxy)phenoxy]-6,7-dimethoxyquinoline], the IC50 was found to be 3260 nM.
With `COc1cc2c(Oc3ccc(Nc4ccc(C(C)(C)C)cc4)cc3)ccnc2cc1OCC1CCCN(C)C1` (stereo not shown) [Compound 56, (4-Tert-butylphenyl)-{4-[6-methoxy-7-(1-methylpiperidin-3-ylmethoxy)quinolin-4-yloxy]phenyl}amine], the IC50 was found to be 405 nM.
On to `COc1cc2nccc(Oc3ccc(Nc4ccc(C(C)(C)C)cc4)c(F)c3)c2cc1OC` [Compound 19, (4-Tert-butylphenyl)-[4-(6,7-dimethoxyquinolin-4-yloxy)-2-fluorophenyl]amine], for which the IC50 was 195 nM.
On to `CCN(CC)CCCOc1cc2nccc(Oc3ccc(Nc4ccc(C(C)(C)C)cc4)cc3)c2cc1OC` [Compound 47, N1-[4-(Tert-butyl)phenyl]-4-({7-[3-(diethylamino)propoxy]-6-methoxy-4-quinolyl}oxy)aniline], for which the IC50 turned out to be 243 nM.
Consider `COc1cc2c(Oc3ccc(NC(=O)NCCC(C)(C)C)cc3)ccnc2cc1OCCCN1CC(C)OC(C)C1` (stereo not shown) [Compound 244, 1-(3,3-Dimethyl-butyl)-3-(4-{7-[3-(2,6-dimethyl-morpholin-4-yl)-propoxy]-6-methoxy-quinolin-4-yloxy}-phenyl)-urea], for which the IC50 is under 10 nM.
In the case of `COc1cc2c(Oc3ccc(NC(=O)NCCC(C)(C)C)c(Cl)c3)ccnc2cc1OCCN1CCCN(C)CC1` [Compound 186, 1-(2-Chloro-4-{6-methoxy-7-[2-(4-methyl-[1,4]diazepan-1-yl)-ethoxy]-quinolin-4-yloxy}-phenyl)-3-(3,3-dimethyl-butyl)-urea] it was 18.3 nM; in that of `COc1cc2nccc(Oc3ccc(NC(=O)NCCC(C)(C)C)c(C(F)(F)F)c3)c2cc1OC` [Compound 150, 1-[4-(6,7-Dimethoxy-quinolin-4-yloxy)-2-trifluoromethyl-phenyl]-3-(3,3-dimethyl-butyl)-urea], 63.8 nM; in that of `COc1cc2c(Oc3ccc(Nc4ccc(C(C)(C)C)cc4)cc3F)ccnc2cc1OCCCN1CCC(CO)CC1` [Compound 270, [1-(3-{4-[4-(4-Tert-butyl-phenylamino)-2-fluoro-phenoxy]-6-methoxy-quinolin-7-yloxy}-propyl)-piperidin-4-yl]-methanol], 303 nM.
Take `COc1cc2c(Oc3ccc(Nc4ccc(C(C)(C)C)cc4)c(F)c3)ccnc2cc1OCCCN1CCC(CCO)CC1` [Compound 306, 2-[1-(3-{4-[4-(4-Tert-butyl-phenylamino)-3-fluoro-phenoxy]-6-methoxy-quinolin-7-yloxy}-propyl)-piperidin-4-yl]-ethanol]: the IC50 was determined as 286 nM.
As to `COc1cc2c(Oc3ccc(Nc4ccc(C(C)(C)C)cc4)cc3)ccnc2cc1OCCCN1CCCC1` [Compound 53, (4-Tert-butylphenyl)-{4-[6-methoxy-7-(3-pyrrolidin-1-ylpropoxy)-quinolin-4-yloxy]phenyl}amine], the IC50 was 38 nM.
As to `COc1cc2c(Oc3ccc(NC(=O)NCCC(C)(C)C)c(Cl)c3)ccnc2cc1OCc1ccccc1` [Compound 163, 1-[4-(7-Benzyloxy-6-methoxy-quinolin-4-yloxy)-2-chloro-phenyl]-3-(3,3-dimethyl-butyl)-urea], the IC50 amounted to 370 nM.
As for `COc1cc2nccc(Oc3ccc(Nc4ccc(C(C)(C)C)cc4)cc3)c2cc1O` [Compound 214, 4-[4-(4-Tert-butyl-phenylamino)-phenoxy]-7-methoxy-quinolin-6-ol], the IC50 came out at 26.1 nM.
In the case of `COc1cc2c(Oc3ccc(NC(=O)NCCC(C)(C)C)cc3)ccnc2cc1OCCCl` [Compound 152, 1-{4-[7-(2-Chloro-ethoxy)-6-methoxy-quinolin-4-yloxy]-phenyl}-3-(3,3-dimethyl-butyl)-urea] it was 25 nM; in that of `COc1cc2c(Oc3ccc(NC(=O)NCCC(C)(C)C)c(F)c3)ccnc2cc1OCCCNCCO` [Compound 332, 1-(3,3-Dimethyl-butyl)-3-(2-fluoro-4-{7-[3-(2-hydroxy-ethylamino)-propoxy]-6-methoxy-quinolin-4-yloxy}-phenyl)-urea], 10.8 nM; in that of `COc1cc2nccc(Oc3ccc(NC(=O)NCCC(C)(C)C)cc3)c2cc1OCCN(C)C` [Compound 222, 1-{4-[6-(2-Dimethylamino-ethoxy)-7-methoxy-quinolin-4-yloxy]-phenyl}-3-(3,3-dimethyl-butyl)-urea], 24.3 nM.
